From patent publication US11179348B2, “Combination comprising pterostilbene for the treatment of cancer” (FUNDACIÓN UNIVERSIDAD CATÓLICA DE VALENCIA SAN VICENTE …, priority 2015, dated 2021)
Like-named read-outs stand apart in the source and are kept apart here.

Tests used:
[1] = test system: HT-29 cells; experiment: GSH levels and glutathione- and oxidative stress-related enzyme activities in HT-29 cells growing in vivo; set-up: species or system human; conditions: HT-29, in vivo Pter, day 21
Protocol: (§1) To measure enzyme activity, isolated tumor cells were homogenized in 0.1 M phosphate buffer (pH 7.2) at 4° C. GCL and GSS activities were measured as described previously (Obrador, E. et al. Hepatology 35, 74-81 (2002)). GPX (selenium dependent) activity was measured as described by Flohé and Gunzler (Flohe, L. & Gunzler, W. A. Methods Enzymol 105, 114-121 (1984)) using H2O2 as a substrate. GSR activity was determined as described by Akerboom and Sies (Akerboom, T. P. et al, Bull Eur Physiopathol Respir 17 Suppl, 221-227 (1981)). GGT activity was measured as described previously (Obrador, E. et al. Hepatology 35, 74-81 (2002)). GST activity was measured using an assay kit from Sigma. TXNRD activity, defined by the concentration of sodium-lipoate (disulfide) reduced to dehydrolipoate (dithiol) per milligram protein, was measured as previously described (Javvadi, P. et al. Cancer Res 70, 1941-1950 (2010)). SOD activity was measured as described by Flohé and Otting (Flohe, L. & Otting, F. Methods Enzymol 105, 93-104 (1984).) using 2 mM cyanide in the assay medium to distinguish mangano-type enzyme (SOD2) from the cuprozinc type (SOD1). CAT activity was analyzed as described by Aebi (Aebi, H. Methods Enzymol 105, 121-126 (1984)). NOX activity was measured by chemiluminescence following the methodology of Wind et al. (Wind, S. et al. Comparative pharmacology of chemically distinct NADPH oxidase inhibitors. Br J Pharmacol 161, 885-898 (2010)). Protein concentration was determined with the Pierce BCA protein assay (Fisher Scientific, Waltham, Mass.).
(§2) GSH, GSSG, NADP^+ and NADPH Determination.
(§3) GSH and GSSG were determined, following procedures previously described (Obrador, E. et al. PLoS One 9, e96466 (2014)), by LC/MS using the same equipment described above for pterostilbene determination. Cell processing was performed according to published methodology, where rapid N-ethylmaleimide derivatization was used to prevent GSH auto-oxidation (Asensi, M. et al. Anal Biochem 217, 323-328 (1994)). NADP^+ and NADPH were quantitated using an assay kit from Sigma (St. Louis, Mo.).
(§4) Isolation of Tumor Cells from Mouse Xenografts Using Enzymatic Digestion and a double Ficoll gradient.
(§5) To maximize the amount of isolated cells, avoiding the use of RFP-transfected cells and subsequent laser microdissection, an alternative methodology was set up. To maximize cell yield and viability the following combination of enzymes was used: collagenase III (200 U/ml; Sigma-Aldrich), DNase I (200 U/ml; Sigma-Aldrich) and trypsin (5 mg/ml; Invitrogen), and a non-enzymatic dissociation buffer (NEDB, Invitrogen). Briefly, mice were killed, and tumors were removed (avoiding skin, muscle and fat) into cold culture media and processed immediately. The tumors were minced into 1-3 mm fragments, which were then incubated with the dissociation solution (see above) for 30 min at 37° C. The tumor fragments were mixed up and down every 10 min using a […] micropipette with a tip cut to a diameter adapted to tissue fragment size. After each incubation period, the fragments were filtered through a […] nylon mesh cell strainer (BD Biosciences, San Diego, Calif., USA). The released cells were centrifuged at 1200 r.p.m. for 2 min and stored in cold CO2-independent medium with 30% FCS at […]. Fresh dissociation solution was added to the remaining tissue fragments for 30 min. Dissociation was stopped when no additional cells were released. The fragments were pushed through a sieve and all cells from all incubation periods were pooled and counted.
(§6) The dissociated cells were layered onto a double Ficoll gradient (Histopaque; Sigma-Aldrich; densities 1.077 and 1.119) and spun at 700 g for 30 min at room temperature. Cells removed from both interfaces were pooled and washed two times in CO2-independent medium and stored at 4° C. Debris and red blood cell elimination was improved with the dual-density gradient. […]

[2] = test system: Caco-2 cells; experiment: GSH levels and glutathione- and oxidative stress-related enzyme activities in Caco-2 cells growing in vivo; set-up: species or system human; conditions: Caco-2, in vivo Pter, day 28
Protocol: as §1, §2, §3, §4, §5, §6

[3] = Pter and metabolite levels in plasma, tumor, brain and pituitary after i.v. administration (LC-MS/MS); format: in vivo, mice; conditions: for highest concentration in plasma / highest concentration in tumors: 5 min after i.v. 30 mg Pter/kg
Protocol: Determination of Pter and its Metabolites by High-Pressure Liquid Chromatography and Mass Spectrometry (LC-MS/MS).
LC-MS/MS was carried out, as previously described (Ferrer, P. et al. Neoplasia 7, 37-47 (2005); Azzolini, M. et al. Mol Nutr Food Res 58, 2122-2132 (2014)) in detail, using a TSQ Vantage™ Triple Quadrupole Mass Spectrometer (Thermo Scientific, Waltham, Mass.) equipped with a Shimadzu LC-10ADvp. pump and a SLC-10Avp. controller system with a SIL-10ADvp. autoinjector.

[4] = test system: A549 human lung cancer; conditions: 20 μM Pter, 24 h, in vitro; cited from earlier work

## COc1cc(/C=C/c2ccc(O)cc2)cc(OC)c1 [Pter, trans-3,5-dimethoxy-4′-hydroxystilbene]
[1]
  CAT: 0.3 ± 0.1 mU/10^6 cells
  GCL: 57 ± 17 mU/10^6 cells
  GSH: 8 ± 2 nmol/10^6 cells
  GSS: 6.5 ± 1.7 mU/10^6 cells
  GSSG: 0.05 ± 0.02 nmol/10^6 cells
  SOD1: 0.2 ± 0.1 U/10^6 cells
  SOD2: 0.02 ± 0.01 U/10^6 cells
[2]
  CAT: 0.7 ± 0.2 mU/10^6 cells
  GCL: 45 ± 14 mU/10^6 cells
  GSH: 8 ± 3 nmol/10^6 cells
  GSS: 5.5 ± 1.9 mU/10^6 cells
  GSSG: 0.2 ± 0.1 nmol/10^6 cells
  SOD1: 0.8 ± 0.3 U/10^6 cells
  SOD2: 0.04 ± 0.01 U/10^6 cells
[3]; 10-30 min after i.v. 30 mg/kg
  approx. mean level in the hypophysis: ~15 µM
[3]; 60 min after i.v. 30 mg/kg
  level in whole brain: approx. 1 nmol/g
[3]; 120 min after i.v. 30 mg/kg
  level in whole brain: non-detectable levels
[3]; A2058-bearing mice
  highest concentration in plasma: 112 ± 17 µM
[3]; A2058 tumors
  highest concentration in tumors: 28 ± 7 µM
[3]; MeWo tumors
  highest concentration in tumors: 33 ± 7 µM
[3]; MeWo-bearing mice
  highest concentration in plasma: 116 ± 23 µM
[3]; MelJuso tumors
  highest concentration in tumors: 25 ± 7 µM
[3]; MelJuso-bearing mice
  highest concentration in plasma: 98 ± 13 µM
[3]; after 480 min
  levels in plasma after the last time point: undetectable
[3]; after i.v. 30 mg/kg
  levels in the hypophysis compared with the whole brain: significantly higher
[3]; at 240-480 min after i.v. 30 mg Pter/kg
  lowest concentration in plasma: approx. 1 μM
[3]; female, nu/nu nude, mouse, melanoma tumor, iv, 30 mg/kg, melanoma tumors, 30 mg Pter/kg i.v., read-out: half-life in the melanoma tumors
  half-life: 36 to 40 min
[3]; female, nu/nu nude, mouse, plasma, iv, 30 mg/kg, B16-F1-bearing mice, Pter 30 mg/kg i.v., read-out: half-life in circulating plasma
  half-life: 61.2 min
[3]; female, nu/nu nude, mouse, plasma, iv, 30 mg/kg, melanoma-bearing mice, 30 mg Pter/kg i.v., read-out: half-life in circulating plasma
  half-life: 70 to 73 min
[3]; female, nu/nu nude, mouse, tumor (B16-F1), iv, 30 mg/kg, B16-F1 tumors, Pter 30 mg/kg i.v., read-out: half-life in the tumors
  half-life: 29.3 min
[3]; female, nu/nu nude, mouse, tumor, iv, 30 mg/kg, at 180 min after i.v. 30 mg Pter/kg, read-out: lowest concentration in tumors
  concentration at 180 min: ~1000 nM
[3]; first hour after i.v. 30 mg Pter/kg
  approximate mean concentration within the tumor: ~15 µM
[3]; i.v. 30 mg Pter/kg
  main Pter-derived metabolite generated in vivo (plasma): pterostilbene-4′-sulfate (Pter-S)
[4]
  decrease in tumor cell viability: ~40%
